According to publication PMC5574958, “Radiosynthesis and Preclinical Evaluation of [^18F]F-DPA, A Novel Pyrazolo[1,5a]pyrimidine Acetamide TSPO Radioligand, in Healthy Sprague Dawley Rats” (Molecular Imaging and Biology, 2017):
One block for each compound: values may come before it.

Key:
TSPO = details: read-out: K i (TSPO affinity); cited from earlier work
CBR = details: read-out: K i CBR (selectivity); cited from earlier work
Ex vivo biodistribution = format: in vivo, Sprague Dawley rats; details: for Uptake of fluorine-18-radioactivity, Harderian gland / Uptake of fluorine-18-radioactivity, Brain / Uptake of fluorine-18-radioactivity, Brown fat / Uptake of fluorine-18-radioactivity, Eye x2 / Uptake of fluorine-18-radioactivity, Injection site (tail) / Uptake of fluorine-18-radioactivity, Large int. Wall + contents / Uptake of fluorine-18-radioactivity, Liver / Uptake of fluorine-18-radioactivity, Lung / Uptake of fluorine-18-radioactivity, Muscle / Uptake of fluorine-18-radioactivity, Salivary x2 / Uptake of fluorine-18-radioactivity, Small int. wall + contents / Uptake of fluorine-18-radioactivity, Stomach wall + contents / Uptake of fluorine-18-radioactivity, Testis: mean, n = 3
Protocol: After sacrifice (5, 15, 30, 60, and 90 min after injection, n = 3, for every time point and radiotracer), the blood was collected into Li-heparin tubes and transcardial perfusion with saline was conducted rapidly in order to eliminate the blood from the whole body. Following this, the organs of the animals were collected, individually weighed, and the radioactivity was measured using a gamma counter (Wizard^2 3 × 3″, PerkinElmer, Turku, Finland). The decay-corrected radioactivity is reported as percentage of injected dose per gram (%ID/g).

[1] = Plasma protein binding (ultrafiltration of plasma after tracer injection); format: in vivo, Sprague Dawley rats; details: 15 min after injection, 30 kDa ultrafiltration, n = 3
Protocol: After 15 min, the animals were sacrificed and the blood was collected into Li-heparin tubes and centrifuged (3000×g, 10 min). A 10-μl aliquot of the plasma was spotted onto a TLC plate; following this, the remaining plasma was filtered by ultrafiltration using Microsep 30K Omega (Pall Life Sciences, Mexico) with a cut-off of 30 kDa. A 10-μl aliquot of the resulting supernatant was also spotted onto the TLC plate. The plates were exposed onto an imaging plate (Fuji BAS Imaging Plate TR2025, Fuji Photo Film Co., Ltd., Tokyo, Japan) for approximately two half-lives of fluorine-18 (3.5 to 4 h). After the exposure, the imaging plates were scanned using a BAS-5000 reader (Fuji, Japan) with a resolution of 50 μm and the saved images were analyzed using TINA software (version 2.10 g, Raytest, Isotopenmessgeräte, GmbH, Straubenhardt, Germany).

[2] = RadioTLC analyses of radiometabolites in plasma and brain homogenates; format: in vivo, Sprague Dawley rats; details: 90 min after injection, n = 3
Protocol: The blood samples were taken into Li-heparin tubes and centrifuged (3000×g, 10 min). The plasma was transferred to an Eppendorf tube and the plasma proteins were precipitated by addition of 1.5 parts of MeOH by volume. Following a further centrifugation (12,000×g, 4 min), 20 μl of the supernatant was spotted onto an aluminum-backed silica gel 60/Kieselguhr F254 TLC plate (EMD Millipore 1.05567.0001, Merck Millipore, Darmstadt, Germany).
Brain samples from the cortex were homogenized with approximately 200 μl of 1:1 v/v of MeOH and water; the mixture was transferred to an Eppendorf tube and centrifuged (12,000×g, 4 min). An aliquot (20 μl) of the supernatant was spotted onto the TLC plate.
The TLC plates were developed with a mixture of dichloromethane and methanol (9:1, v/v) for a distance of 6 cm. Following this, the plates were exposed onto an imaging plate (Fuji BAS Imaging Plate TR2025, Fuji Photo Film Co., Ltd., Tokyo, Japan) for approximately two half-lives of fluorine-18 (3.5 to 4 h). After the exposure, the imaging plates were scanned using a BAS-5000 reader (Fuji, Japan) with a resolution of 50 μm and the saved images were analyzed using TINA software (version 2.10 g, Raytest, Isotopenmessgeräte, GmbH, Straubenhardt, Germany).

SMILES: CCN(CC)C(=O)Cc1c(-c2ccc(F)cc2)nn2c(C)cc(C)nc12 [F-DPA, N,N-Diethyl-2-(2-(4-fluorophenyl)-5,7-dimethylpyrazolo[1,5-a]pyrimidin-3-yl)acetamide]
Ki (TSPO): 1.7 nM
Ki (CBR): > 1000 nM

Uptake of fluorine-18-radioactivity, Harderian gland (Ex vivo biodistribution; 5 min after injection): 0.40 %ID/g tissue
Uptake of fluorine-18-radioactivity, Harderian gland (Ex vivo biodistribution; 15 min after injection): 0.52 %ID/g tissue
Uptake of fluorine-18-radioactivity, Harderian gland (Ex vivo biodistribution; 30 min after injection): 0.45 %ID/g tissue
Uptake of fluorine-18-radioactivity, Harderian gland (Ex vivo biodistribution; 60 min after injection): 0.54 %ID/g tissue
Uptake of fluorine-18-radioactivity, Harderian gland (Ex vivo biodistribution; 90 min after injection): 0.43 %ID/g tissue
Uptake of fluorine-18-radioactivity, Brain (Ex vivo biodistribution; 5 min after injection): 0.29 %ID/g tissue
Uptake of fluorine-18-radioactivity, Brain (Ex vivo biodistribution; 15 min after injection): 0.17 %ID/g tissue
Uptake of fluorine-18-radioactivity, Brain (Ex vivo biodistribution; 30 min after injection): 0.12 %ID/g tissue
Uptake of fluorine-18-radioactivity, Brain (Ex vivo biodistribution; 60 min after injection): 0.09 %ID/g tissue
Uptake of fluorine-18-radioactivity, Brain (Ex vivo biodistribution; 90 min after injection): 0.08 %ID/g tissue
Uptake of fluorine-18-radioactivity, Brown fat (Ex vivo biodistribution; 5 min after injection): 0.22 %ID/g tissue
Uptake of fluorine-18-radioactivity, Brown fat (Ex vivo biodistribution; 15 min after injection): 0.31 %ID/g tissue
Uptake of fluorine-18-radioactivity, Brown fat (Ex vivo biodistribution; 30 min after injection): 0.51 %ID/g tissue
Uptake of fluorine-18-radioactivity, Brown fat (Ex vivo biodistribution; 60 min after injection): 1.07 %ID/g tissue
Uptake of fluorine-18-radioactivity, Brown fat (Ex vivo biodistribution; 90 min after injection): 1.25 %ID/g tissue
Uptake of fluorine-18-radioactivity, Eye x2 (Ex vivo biodistribution; eye x2, 5 min after injection): 0.28 %ID/g tissue
Uptake of fluorine-18-radioactivity, Eye x2 (Ex vivo biodistribution; eye x2, 15 min after injection): 0.29 %ID/g tissue
Uptake of fluorine-18-radioactivity, Eye x2 (Ex vivo biodistribution; eye x2, 30 min after injection): 0.26 %ID/g tissue
Uptake of fluorine-18-radioactivity, Eye x2 (Ex vivo biodistribution; eye x2, 60 min after injection): 0.22 %ID/g tissue
Uptake of fluorine-18-radioactivity, Eye x2 (Ex vivo biodistribution; eye x2, 90 min after injection): 0.20 %ID/g tissue
Uptake of fluorine-18-radioactivity, Injection site (tail) (Ex vivo biodistribution; 5 min after injection): 0.49 %ID/g tissue
Uptake of fluorine-18-radioactivity, Injection site (tail) (Ex vivo biodistribution; 15 min after injection): 0.29 %ID/g tissue
Uptake of fluorine-18-radioactivity, Injection site (tail) (Ex vivo biodistribution; 30 min after injection): 0.34 %ID/g tissue
Uptake of fluorine-18-radioactivity, Injection site (tail) (Ex vivo biodistribution; 60 min after injection): 0.38 %ID/g tissue
Uptake of fluorine-18-radioactivity, Injection site (tail) (Ex vivo biodistribution; 90 min after injection): 0.24 %ID/g tissue
Uptake of fluorine-18-radioactivity, Large int. Wall + contents (Ex vivo biodistribution; 5 min after injection): 0.20 %ID/g tissue
Uptake of fluorine-18-radioactivity, Large int. Wall + contents (Ex vivo biodistribution; 15 min after injection): 0.24 %ID/g tissue
Uptake of fluorine-18-radioactivity, Large int. Wall + contents (Ex vivo biodistribution; 30 min after injection): 0.26 %ID/g tissue
Uptake of fluorine-18-radioactivity, Large int. Wall + contents (Ex vivo biodistribution; 60 min after injection): 0.41 %ID/g tissue
Uptake of fluorine-18-radioactivity, Large int. Wall + contents (Ex vivo biodistribution; 90 min after injection): 0.29 %ID/g tissue
Uptake of fluorine-18-radioactivity, Liver (Ex vivo biodistribution; 5 min after injection): 0.78 %ID/g tissue
Uptake of fluorine-18-radioactivity, Liver (Ex vivo biodistribution; 15 min after injection): 0.87 %ID/g tissue
Uptake of fluorine-18-radioactivity, Liver (Ex vivo biodistribution; 30 min after injection): 0.60 %ID/g tissue
Uptake of fluorine-18-radioactivity, Liver (Ex vivo biodistribution; 60 min after injection): 0.37 %ID/g tissue
Uptake of fluorine-18-radioactivity, Liver (Ex vivo biodistribution; 90 min after injection): 0.26 %ID/g tissue
Uptake of fluorine-18-radioactivity, Lung (Ex vivo biodistribution; 5 min after injection): 19.83 %ID/g tissue
Uptake of fluorine-18-radioactivity, Lung (Ex vivo biodistribution; 15 min after injection): 10.24 %ID/g tissue
Uptake of fluorine-18-radioactivity, Lung (Ex vivo biodistribution; 30 min after injection): 5.73 %ID/g tissue
Uptake of fluorine-18-radioactivity, Lung (Ex vivo biodistribution; 60 min after injection): 3.01 %ID/g tissue
Uptake of fluorine-18-radioactivity, Lung (Ex vivo biodistribution; 90 min after injection): 2.00 %ID/g tissue
Uptake of fluorine-18-radioactivity, Muscle (Ex vivo biodistribution; 5 min after injection): 0.07 %ID/g tissue
Uptake of fluorine-18-radioactivity, Muscle (Ex vivo biodistribution; 15 min after injection): 0.07 %ID/g tissue
Uptake of fluorine-18-radioactivity, Muscle (Ex vivo biodistribution; 30 min after injection): 0.11 %ID/g tissue
Uptake of fluorine-18-radioactivity, Muscle (Ex vivo biodistribution; 60 min after injection): 0.16 %ID/g tissue
Uptake of fluorine-18-radioactivity, Muscle (Ex vivo biodistribution; 90 min after injection): 0.18 %ID/g tissue
Uptake of fluorine-18-radioactivity, Salivary x2 (Ex vivo biodistribution; salivary x2, 5 min after injection): 0.59 %ID/g tissue
Uptake of fluorine-18-radioactivity, Salivary x2 (Ex vivo biodistribution; salivary x2, 15 min after injection): 1.34 %ID/g tissue
Uptake of fluorine-18-radioactivity, Salivary x2 (Ex vivo biodistribution; salivary x2, 30 min after injection): 0.88 %ID/g tissue
Uptake of fluorine-18-radioactivity, Salivary x2 (Ex vivo biodistribution; salivary x2, 60 min after injection): 1.00 %ID/g tissue
Uptake of fluorine-18-radioactivity, Salivary x2 (Ex vivo biodistribution; salivary x2, 90 min after injection): 0.89 %ID/g tissue
Uptake of fluorine-18-radioactivity, Small int. wall + contents (Ex vivo biodistribution; 5 min after injection): 0.69 %ID/g tissue
Uptake of fluorine-18-radioactivity, Small int. wall + contents (Ex vivo biodistribution; 15 min after injection): 1.07 %ID/g tissue
Uptake of fluorine-18-radioactivity, Small int. wall + contents (Ex vivo biodistribution; 30 min after injection): 1.44 %ID/g tissue
Uptake of fluorine-18-radioactivity, Small int. wall + contents (Ex vivo biodistribution; 60 min after injection): 1.80 %ID/g tissue
Uptake of fluorine-18-radioactivity, Small int. wall + contents (Ex vivo biodistribution; 90 min after injection): 2.04 %ID/g tissue
Uptake of fluorine-18-radioactivity, Stomach wall + contents (Ex vivo biodistribution; 5 min after injection): 0.27 %ID/g tissue
Uptake of fluorine-18-radioactivity, Stomach wall + contents (Ex vivo biodistribution; 15 min after injection): 0.65 %ID/g tissue
Uptake of fluorine-18-radioactivity, Stomach wall + contents (Ex vivo biodistribution; 30 min after injection): 0.43 %ID/g tissue
Uptake of fluorine-18-radioactivity, Stomach wall + contents (Ex vivo biodistribution; 60 min after injection): 0.33 %ID/g tissue
Uptake of fluorine-18-radioactivity, Stomach wall + contents (Ex vivo biodistribution; 90 min after injection): 0.44 %ID/g tissue
Uptake of fluorine-18-radioactivity, Testis (Ex vivo biodistribution; 5 min after injection): 0.11 %ID/g tissue
Uptake of fluorine-18-radioactivity, Testis (Ex vivo biodistribution; 15 min after injection): 0.10 %ID/g tissue
Uptake of fluorine-18-radioactivity, Testis (Ex vivo biodistribution; 30 min after injection): 0.13 %ID/g tissue
Uptake of fluorine-18-radioactivity, Testis (Ex vivo biodistribution; 60 min after injection): 0.14 %ID/g tissue
Uptake of fluorine-18-radioactivity, Testis (Ex vivo biodistribution; 90 min after injection): 0.14 %ID/g tissue
Fraction of radioactivity unbound to the plasma proteins [1]: 32.8 ± 8.8%
Unchanged radiotracer, share of radioactivity in the brain ([2]; brain homogenate): 53.6 ± 1.6%
Unchanged radiotracer, share of radioactivity in the plasma ([2]; plasma): 11.1 ± 2.6%
SMILES: CCN(CC)C(=O)Cc1c(-c2ccc(OCC[18F])cc2)nn2c(C)cc(C)nc12 [[^18F]DPA-714, reference compound]
Accumulation of radioactivity in the bone (defluorination in vivo) (Ex vivo biodistribution; after the initial uptake at 5 min, up to 90 min): no significant accumulation of radioactivity in the bone
Ki (CBR): > 1000 nM
